Read-outs that look alike come from different tables or passages of the source.
Legend:
[1] = test system: MYB mRNA; test: RT-qPCR splicing assay, MYB canonical junction (CJ) and alternative junction (AJ) mRNA; type: cell-based, human; details: Homo sapiens; for AC50: increase in MYB alternative junction (AJ) mRNA, read-out: MYB AJ AC50
Method in brief: (§1)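 Read-out is one-step RT-qPCR on cell lysates detecting the exon-exon junction of each isoform, normalized to a housekeeping gene (PPIA in A673, GAPDH or GUSB in K562).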

[2] = test system: K562 (human chronic myelogenous leukemia) cells; test: Cell Titer Glo 2.0 cell viability assay; type: cell-based; details: Homo sapiens, K562, 72 h, K562 cells, 72 hours, Cell Titer Glo 2.0; read-out: K562 GI50
[3] = test system: SMN2 mRNA; test: RT-qPCR splicing assay, SMN2 canonical junction (CJ) mRNA; type: cell-based, human; details: Homo sapiens
Method in brief: (§2)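 A673 or K562 cells were treated for 24 h at 37 °C with compound in 11-point 3-fold dilution (top 10 uM final, DMSO ≤0.25%). Lysates then went to one-step RT-qPCR measuring canonical-junction mRNA, normalized to GAPDH, GUSB or PPIA.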

[4] = test system: Target C; test: RT-qPCR splicing assay panel, Target C canonical junction (CJ) mRNA; type: cell-based, human; details: Homo sapiens
Method in brief: as §2

[5] = test system: HTT mRNA; test: RT-qPCR splicing assay, HTT canonical junction (CJ) and alternative junction (AJ) mRNA; type: cell-based, human; details: Homo sapiens; for AC50: increase in HTT alternative junction (AJ) mRNA, read-out: HTT AJ AC50
Method in brief: as §1

[6] = canonical junction qPCR panel, Table 5, read-out: MYB (decrease in CJ mRNA levels, IC50)
[7] = decrease in MYB canonical junction (CJ) mRNA, RT-qPCR, read-out: MYB CJ IC50
[8] = canonical junction qPCR panel, Table 5, read-out: SMN2 (decrease in CJ mRNA levels, IC50)
[9] = canonical junction qPCR panel, Table 5, read-out: Target C (decrease in CJ mRNA levels, IC50)
[10] = decrease in HTT canonical junction (CJ) mRNA, RT-qPCR, read-out: HTT CJ IC50
[11] = canonical junction qPCR panel, Table 5, read-out: HTT (decrease in CJ mRNA levels, IC50)
[12] = Table 5 panel, canonical junction qPCR, compound concentration having 50% response in CJ decrease, read-out: MYB IC50 (decrease in CJ mRNA levels)
[13] = Table 5 panel, canonical junction qPCR, compound concentration having 50% response in CJ decrease, read-out: SMN2 IC50 (decrease in CJ mRNA levels)
[14] = Table 5 panel, canonical junction qPCR, compound concentration having 50% response in CJ decrease, read-out: Target C IC50 (decrease in CJ mRNA levels)
[15] = Table 5 panel, canonical junction qPCR, compound concentration having 50% response in CJ decrease, read-out: HTT IC50 (decrease in CJ mRNA levels)

Row | SMILES | IC50 [1, 6] [µM] | IC50 [1, 7] [µM] | GI50 [2] [µM] | IC50 [3, 8] [µM] | IC50 [4, 9] [µM] | IC50 [5, 10] [µM] | IC50 [5, 11] [µM] | IC50 [1, 12] [µM] | IC50 [3, 13] [µM] | IC50 [4, 14] [µM] | IC50 [5, 15] [µM] | AC50 ([1]; RT-qPCR) [µM] | AC50 ([5]; RT-qPCR) [µM]
1 | Cc1cn2cc(-c3ccc4c(=O)n(C5CCN(C)CC5)cnc4c3)cc(F)c2n1 [Compound 207] |  | 1 to 10 | 1 to 10 |  |  | 1 to 10 |  | 1 to 10 | 0.1 to 1 | 1 to 10 | 1 to 10 | 1 to 10 | 1 to 10
2 | CN1CCC(n2cnc3cc(-c4ccc5nn(C)cc5c4)ccc3c2=O)CC1 [Compound 208] |  | 1 to 10 | 1 to 10 |  |  | 1 to 10 |  | 1 to 10 | 0.1 to 1 | > 10 | > 10 | 1 to 10 | > 10
3 | Cc1cn2cc(-c3ccc4c(=O)n(C5CCNCC5)cnc4c3F)cc(F)c2n1 [Compound 210] |  | 1 to 10 | 0.1 to 1 |  |  | 1 to 10 |  | 1 to 10 | 0.1 to 1 | 1 to 10 | 1 to 10 | 1 to 10 | 1 to 10
4 | Cc1nc2c(F)cc(-c3ccc4c(c3)CCN(C3CCNCC3)C4=O)cc2o1 [Compound 215] |  | 1 to 10 | 1 to 10 |  |  | 1 to 10 |  | 1 to 10 | < 0.1 | 1 to 10 | 1 to 10 | 1 to 10 | 1 to 10
5 | Cc1cn2cc(-c3ccc4c(c3)CCN(C3CCNCC3)C4=O)cc(Cl)c2n1 [Compound 216, 6-[8-chloro-2-methylimidazo[1,2-a]pyridin-6-yl]-2-(piperidin-4-yl)-3,4-dihydroisoquinolin-1-one] |  | 1 to 10 | 0.1 to 1 |  |  | 1 to 10 |  | 0.1 to 1 | < 0.1 | 1 to 10 | 1 to 10 | 0.1 to 1 | 1 to 10
6 | Cc1cn2cc(-c3ccc4c(c3)CCN(C3CCNCC3)C4=O)cc(C)c2n1 [Compound 217, 6-[2,8-dimethylimidazo[1,2-a]pyridin-6-yl]-2-(piperidin-4-yl)-3,4-dihydroisoquinolin-1-one] |  | 1 to 10 | 1 to 10 |  |  | 1 to 10 |  | 1 to 10 | 0.1 to 1 | > 10 | 1 to 10 | 1 to 10 | 1 to 10
7 | Cc1cn2cc(-c3ccc4c(c3)CCN(C3CCNCC3)C4=O)c(C)cc2n1 [Compound 218, 6-[2,7-dimethylimidazo[1,2-a]pyridin-6-yl]-2-(piperidin-4-yl)-3,4-dihydroisoquinolin-1-one] |  | 1 to 10 | 1 to 10 |  |  | 1 to 10 |  | 1 to 10 | 1 to 10 | 1 to 10 | 1 to 10 | 1 to 10 | 1 to 10
8 | Cc1cc(-c2ccc3c(c2)CCN(C2CCNCC2)C3=O)cc2cn(C)nc12 [Compound 219, 6-(2,7-dimethylindazol-5-yl)-2-(piperidin-4-yl)-3,4-dihydroisoquinolin-1-one] |  | 0.1 to 1 | 1 to 10 |  |  | 1 to 10 |  | 0.1 to 1 | < 0.1 | 1 to 10 | 1 to 10 | 0.1 to 1 | 1 to 10
9 | Cc1c(O)c(-c2ncc3c(=O)n([C@H]4CCNC5(CC5)C4)ccc3n2)cc2cn(C)nc12 [Compound 1512] | < 0.1 | 0.1 to 1 | 0.1 to 1 |  | 0.1 to 1 | 0.1 to 1 | 0.1 to 1 |  |  |  |  | < 0.1 | 0.1 to 1
10 | Cc1c(O)c(-c2nc(C)c3c(=O)n([C@@H]4CCNC5(CC5)C4)ccc3n2)cc2cn(C)nc12 [Compound 1515, (R)-2-(6-hydroxy-2,7-dimethyl-2H-indazol-5-yl)-4-methyl-6-(4-azaspiro[2.5]octan-7-yl)pyrido[4,3-d]pyrimidin-5(6H)-one] | < 0.1 | 0.1 to 1 | 0.1 to 1 |  | 0.1 to 1 | 1 to 10 | 0.1 to 1 |  |  |  |  | < 0.1 | 0.1 to 1

More lines, main results first:

Row | IC50 [1, 6] [µM] | IC50 [1, 7] [µM] | GI50 [2] [µM] | IC50 [3, 8] [µM] | IC50 [4, 9] [µM] | IC50 [5, 10] [µM] | IC50 [5, 11] [µM] | IC50 [1, 12] [µM] | IC50 [3, 13] [µM] | IC50 [4, 14] [µM] | IC50 [5, 15] [µM] | SMILES | AC50 ([1]; RT-qPCR) [µM] | AC50 ([5]; RT-qPCR) [µM]
11 | 0.1 to 1 | 0.1 to 1 | 0.1 to 1 | < 0.1 | 0.1 to 1 | 0.1 to 1 | 0.1 to 1 |  |  |  |  | Cc1cn2nc(-c3ccc4c(=O)n(C5CC(C)N[C@H](C)C5)ncc4n3)cc(C)c2n1 (stereo in doubt) [Compound 1536, 2-(2,8-dimethylimidazo[1,2-b]pyridazin-6-yl)-6-[(2S,6R)-2,6-dimethyl-4-piperidyl]pyrido[2,3-d]pyridazin-5-one] | 0.1 to 1 | 0.1 to 1
12 | 0.1 to 1 | 0.1 to 1 | 0.1 to 1 | < 0.1 | 0.1 to 1 | 0.1 to 1 | 0.1 to 1 |  |  |  |  | Cc1cn2nc(-c3ccc4c(=O)n(C5C[C@@H](C)N[C@H](C)C5)ncc4n3)cc(C)c2n1 (stereo in doubt) [Compound 1537, 2-(2,8-dimethylimidazo[1,2-b]pyridazin-6-yl)-6-[(2R,6R)-2,6-dimethyl-4-piperidyl]pyrido[2,3-d]pyridazin-5-one] | 0.1 to 1 | 0.1 to 1
13 | 0.1 to 1 | 0.1 to 1 | 0.1 to 1 | 0.1 to 1 | 0.1 to 1 | 0.1 to 1 | 0.1 to 1 |  |  |  |  | Cc1cn2nc(-c3ccc4c(=O)n([C@H]5CC(C)N[C@@H](C)C5)ncc4n3)cc(C)c2n1 (stereo in doubt) [Compound 1538, 2-(2,8-dimethylimidazo[1,2-b]pyridazin-6-yl)-6-[(2S,6S)-2,6-dimethyl-4-piperidyl]pyrido[2,3-d]pyridazin-5-one] | 0.1 to 1 | 0.1 to 1
14 |  | 0.1 to 1 | 0.1 to 1 |  |  | 0.1 to 1 |  | 0.1 to 1 | < 0.1 | 0.1 to 1 | 0.1 to 1 | Cc1cn2cc(-c3ccc4c(=O)n(C5CCNCC5)cnc4c3)cc(F)c2n1 [Compound 205] | 0.1 to 1 | 0.1 to 1
15 |  | < 0.1 | 0.1 to 1 |  |  | 0.1 to 1 |  | 0.1 to 1 | < 0.1 | 0.1 to 1 | 0.1 to 1 | Cn1cc2cc(-c3ccc4c(=O)n(C5CCNCC5)cnc4c3)cc(F)c2n1 [Compound 206] | 0.1 to 1 | 0.1 to 1
16 |  | 0.1 to 1 | 1 to 10 |  |  | 0.1 to 1 |  | 0.1 to 1 | < 0.1 | 1 to 10 | 1 to 10 | CN1CCC(n2cnc3cc(-c4cc(F)c5nn(C)cc5c4)ccc3c2=O)CC1 [Compound 209] | 0.1 to 1 | 1 to 10
